{
  "source": "patent US20170209346A1",
  "about": "“SHAPED CELLULOSE BODIES WITH PHYSIOLOGICALLY ACTIVE MINERAL SUBSTANCES DISTRIBUTED THEREIN” (smartpolymer GmbH, priority 2014, published 2017)",
  "key": {"[1]": {"experiment": "Solubility of mineral compounds in water", "settings": "at 20° C.; chemically pure material used in Example 1", "from_the_text": "The mineral compounds contain at least one mineral from the group consisting of sodium, potassium, calcium and magnesium and zinc. […] Water solubility is a prerequisite for the activity of the mineral compounds used, since corresponding anions and cations can thus be released.\nThis reported solubility is based on literature data. This list in no way restricts the actual multiplicity of possible mineral compounds having the required properties."}, "[2]": {"settings": "literature data, cited from earlier work"}},
  "note": "Like-named read-outs stand apart in the source and are kept apart here.",
  "data": [
    {"compound": "[O]=[Mg]", "note": "[type 1 magnesium oxide, magnesium oxide]", "values": [
      {"measurement": "solubility in water", "setting": "[1]", "result": 12.5, "unit": "µg/mL"}
    ]},
    {"compound": "[O]=[Zn]", "note": "[Zinc oxide]", "values": [
      {"measurement": "solubility in water", "setting": "[2]; 29° C.", "result": 1.6, "unit": "µg/mL"}
    ]},
    {"compound": "Hydroxylapatite", "values": [
      {"measurement": "solubility in water", "setting": "[2]; 20° C.", "result": 6.57, "unit": "µg/mL"}
    ]},
    {"compound": "[O]=[Mg]", "note": "[Magnesium oxide]", "values": [
      {"measurement": "solubility in water", "setting": "[2]; temperature not given", "result": 12, "unit": "µg/mL"}
    ]}
  ]
}
